Consider 53 compounds from patent US20260209218A1, “3-PHENYLQUINAZOLINONES AS NOVEL ANTI-CANCER THERAPY” (HELMHOLTZ ZENTRUM MÜNCHEN - DEUTSCHES FORSCHUNGSZENTRUM FÜR …, priority 2022, published 2026).

Each structure is given as a SMILES string.

System in one series: not listed separately
The series can be described thus: Microsomal stability, mouse liver microsomes. The conditions noted are these: Balb/c, pH 7.4, 0.42 mg microsomal protein per ml, 37° C., five time points over 40 minutes. The class given is in vitro ADME. As to the method: (§1) The objective of this study was to determine metabolic stability of 4 test articles and reference compounds in human and mouse liver microsomes at five time points over 40 minutes using HPLC-MS. Metabolic stability is defined as the percentage of parent compound lost over time in the presence of a metabolically active test system.
(§2) Microsomal incubations were carried out in 96-well plates in 5 aliquots of 30 μL each (one for each time point). Liver microsomal incubation medium comprised of phosphate buffer (100 mM, pH 7.4), MgCl2 (3.3 mM), NADPH (3 mM), glucose-6-phosphate (5.3 mM), glucose-6-phosphate dehydrogenase (0.67 units/ml) with 0.42 mg of liver microsomal protein per ml. In the control reactions, the NADPH-cofactor system was substituted with phosphate buffer. Test compounds (2 μM, final solvent concentration 1.6%) were incubated with microsomes at 37° C., shaking at 100 rpm. Five time points over 40 minutes were analyzed. The reactions were stopped by adding 5 volumes of acetonitrile with internal standard to incubation aliquots, followed by protein sedimentation by centrifuging at 5500 rpm for 5 minutes. Each reaction was performed in duplicates. Supernatants were analyzed using the HPLC system coupled with a tandem mass spectrometer.
(§3) The elimination constant (kel), half-life (t1,2), and intrinsic clearance (Clint) were determined in a plot of In(AUC) versus time, using linear regression analysis:^1
For orientation: microsomal CLint means the rate of metabolic loss divided by the concentration. Compound `Cc1nc2cc(F)c(F)cc2c(=O)n1-c1ccc(NC(=O)Cc2ccc(C(F)(F)F)cc2)cc1` [Compound 74] had a microsomal CLint at 2 μM of 7 µL/min/mg.

Consider `Cc1nc2cc(F)c(F)cc2c(=O)n1-c1ccc(NC(=O)Cc2ccccc2)cc1` [Compound 82], for which the intrinsic metabolic clearance (microsomal CLint) at 2 μM was 15 µL/min/mg.

System in a further series: not listed separately
Kind of series: Microsomal stability, human liver microsomes. As to conditions: pH 7.4, 0.42 mg microsomal protein per ml, 37° C., five time points over 40 minutes. Type of series: in vitro ADME. How it is done:
as §1, §2, §3
Turning to `Cc1nc2cc(F)c(F)cc2c(=O)n1-c1ccc(NC(=O)Cc2ccc(C(F)(F)F)cc2)cc1` [Compound 74], the microsomal CLint at 2 μM came out at 7 µL/min/mg.

`Cc1nc2cc(F)c(F)cc2c(=O)n1-c1ccc(NC(=O)Cc2ccccc2)cc1` [Compound 82]: the microsomal CLint at 2 μM was found to be 4 µL/min/mg.

The next series has as its target T1, hFSP1 (Homo sapiens, UniProt Q9BRQ8).
T1 construct: expressed in transfected cells; host or cells: Gpx4 KO isogenic fibroblasts (Pfa1, mouse) overexpressing hFSP1
T1 sequence (Q9BRQ8 1-373): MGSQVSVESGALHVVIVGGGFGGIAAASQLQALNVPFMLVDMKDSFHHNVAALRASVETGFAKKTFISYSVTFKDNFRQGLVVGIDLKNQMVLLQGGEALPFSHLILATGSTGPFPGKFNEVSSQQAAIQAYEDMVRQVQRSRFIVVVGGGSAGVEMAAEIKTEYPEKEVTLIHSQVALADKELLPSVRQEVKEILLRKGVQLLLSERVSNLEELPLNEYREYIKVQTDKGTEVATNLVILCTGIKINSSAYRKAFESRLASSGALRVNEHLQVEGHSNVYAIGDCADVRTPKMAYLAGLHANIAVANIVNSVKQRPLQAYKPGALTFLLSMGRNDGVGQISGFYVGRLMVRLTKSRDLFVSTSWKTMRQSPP
The series can be described thus: Dose-response of screening hits, cell survival by Aquabluer in hFSP1 GPX4 KO cells. Type of series: cell-based. As to conditions: FSP1 overexpressing cells lacking GPX4. How it is done:
To identify new small molecule inhibitors that induce ferroptosis in FSP1 overexpressing cells lacking GPX4, hFSP1 GPX4 KO as well as FSP1 GPX4 wild type (WT) isogenic fibroblasts were screened using a subtractive high throughput screening (HTS) approach. As such, both cell lines were plated in parallel and screened against HMGU libraries at a fixed concentration of 10 μM. Cell survival was evaluated using the LIVE/DEAD assay Aquabluer. The percentage (%) of viable cells was determined for both wild type (WT) and knockout (KO) cell lines. Hits were considered as compounds that induce ferroptosis in KO but not in WT cells. Subsequently, positive hits were assayed in a dose-response manner to establish EC50 values of respective compounds (see Table 2).
As usually defined, the EC50 is the concentration at which the effect is half-maximal. For `Cc1cc(CC(=O)Nc2ccc(-n3c(C)nc4cc(F)c(F)cc4c3=O)cc2)cc(C)c1C` [Compound 75], the EC50 is less than 100 nM.

Take `Cc1ccccc1CC(=O)Nc1ccc(-n2c(C)nc3ccccc3c2=O)cc1C` [Compound 23]: the EC50 was more than 1000 nM.

Take `COc1cc(CC(=O)Nc2ccc(-n3c(C)nc4ccccc4c3=O)cc2C)cc(OC)c1OC` [Compound 9]: the EC50 is less than 1000 nM.

As to `COc1cc(CC(=O)Nc2ccc(-n3c(C)nc4cc(F)c(F)cc4c3=O)cc2)cc(OC)c1OC` [Compound 46], the EC50 was less than 100 nM.

With `COc1cc(CC(=O)Nc2ccc(-n3c(C(F)F)nc4ccccc4c3=O)cc2)cc(OC)c1OC` [Compound 41], the EC50 is more than 1000 nM.

Turning to `COc1ccc(CC(=O)Nc2ccc3nc(C)n(-c4ccc(F)cc4)c(=O)c3c2)cc1OC` [Compound 11], the EC50 is more than 1000 nM.

Regarding `Cc1nc2cc(F)c(F)cc2c(=O)n1-c1ccc(NC(=O)Cc2ccccn2)cc1` [Compound 83], the EC50 was more than 1000 nM.

In the case of `Cc1nc2cc(F)c(F)cc2c(=O)n1-c1ccc(NC(=O)Cc2ccc(C(F)(F)F)cc2)cc1` [Compound 74], the EC50 is less than 1000 nM.

For `CCOc1ccc(CC(=O)Nc2ccc(-n3c(C)nc4ccccc4c3=O)cc2C)cc1` [Compound 12], the EC50 is less than 1000 nM.

As for `Cc1nc2cc(F)c(F)cc2c(=O)n1-c1ccc(NC(=O)Cc2ccccc2)cc1` [Compound 82], the EC50 is less than 1000 nM.

As to `Cc1nc2cc(F)c(F)cc2c(=O)n1-c1ccc(NC(=O)Cc2cc(C(F)(F)F)cc(C(F)(F)F)c2)cc1` [Compound 86], the concentration for a half-maximal effect (EC50) is less than 100 nM.

Consider `COc1cc(CC(=O)Nc2ccc(-n3c(C)nc4sccc4c3=O)cc2)cc(OC)c1OC` [Compound 69], for which the EC50 was less than 1000 nM.

For `COc1cc(C(=O)Nc2cccc(-n3c(C)nc4ccccc4c3=O)c2)cc(OC)c1OC` [Compound 6], the EC50 is less than 1000 nM.

As for `Cc1cc(-n2c(C)nc3ccccc3c2=O)ccc1NC(=O)Cc1c(F)cccc1Cl` [Compound 32], the EC50 is less than 1000 nM.

In the case of `Cc1nc2cc(F)c(F)cc2c(=O)n1-c1ccc(NC(=O)Cc2cccnc2)cc1` [Compound 84], the EC50 was more than 1000 nM.

`COc1cc(CC(=O)Nc2ccc(-n3c(C)nc4cnccc4c3=O)cc2)cc(OC)c1OC` [Compound 49]: the EC50 was more than 1000 nM.

For `Cc1cc(CC(=O)Nc2ccc(-n3c(C)nc4cc(F)c(F)cc4c3=O)cc2)cc(C)n1` [Compound 85], the EC50 is more than 1000 nM.

Consider `COc1cc(C(=O)Nc2ccc(-n3c(C)nc4ccccc4c3=O)cc2)cc(OC)c1OC` [Compound 3], for which the EC50 is more than 1000 nM.

In the case of `Cc1nc2ccccc2c(=O)n1-c1ccc(NC(=O)Cc2ccc(F)cc2)cc1` [Compound 17], the EC50 is more than 1000 nM.

On to `Cc1ccccc1CC(=O)Nc1ccc(-n2c(C)nc3ccccc3c2=O)cc1` [Compound 16], for which the EC50 is more than 1000 nM.

With `Cc1cc(-n2c(C)nc3ccccc3c2=O)ccc1NC(=O)Cc1ccccc1F` [Compound 29], the EC50 is more than 1000 nM.

As for `Cc1nc2ccccc2c(=O)n1-c1ccc(NC(=O)Cc2ccc3c(c2)CCC3)cc1` [Compound 64], the 50% effective concentration (EC50) was less than 100 nM.

In the case of `COc1cc(CC(=O)Nc2ccc(-n3c(CO)nc4ccccc4c3=O)cc2)cc(OC)c1OC` [Compound 71], the EC50 was more than 1000 nM.

In the case of `CCOc1ccc(CC(=O)Nc2ccc(-n3c(C)nc4ccccc4c3=O)cc2)cc1` [Compound 2], the 50% effective concentration (EC50) is more than 1000 nM.

As for `COc1ccc(CC(=O)Nc2ccc(-n3c(C)nc4ccccc4c3=O)cc2C)c(Cl)c1` [Compound 34], the EC50 is less than 1000 nM.

In the case of `COc1cc(CC(=O)Nc2ccc(-n3c(CF)nc4ccccc4c3=O)cc2)cc(OC)c1OC` [Compound 42], the EC50 was less than 1000 nM.

For `Cc1nc2ccccc2c(=O)n1-c1ccc(N(C)S(=O)(=O)Cc2ccccc2)cc1` [Compound 73], the EC50 is more than 1000 nM.

In the case of `Cc1cccc(CC(=O)Nc2ccc(-n3c(C)nc4ccccc4c3=O)cc2)c1` [Compound 15], the EC50 is less than 1000 nM.

For the compound `Cc1nc2ccccc2c(=O)n1-c1ccc(NS(=O)(=O)Cc2ccccc2)cc1` [Compound 72], the concentration for a half-maximal effect (EC50) was more than 1000 nM.

Regarding `Cc1cccc(CC(=O)Nc2ccc(-n3c(C)nc4ccccc4c3=O)cc2C)c1` [Compound 22], the EC50 was more than 1000 nM.

`Cc1nc2cc(F)c(F)cc2c(=O)n1-c1ccc(NC(=O)Cc2cc(F)c(F)c(F)c2)cc1` [Compound 76]: the EC50 was less than 1000 nM.

In the case of `COc1ccc(CC(=O)Nc2ccc(-n3c(C)nc4ccccc4c3=O)cc2)c(Cl)c1` [Compound 31], the EC50 is less than 1000 nM.

Take `COc1ccc(CC(=O)Nc2cccc(-n3c(C)nc4ccccc4c3=O)c2)cc1` [Compound 5]: the EC50 is more than 1000 nM.

Consider `COc1cccc(CC(=O)Nc2ccc(-n3c(C)nc4ccccc4c3=O)cc2)c1` [Compound 8], for which the EC50 was more than 1000 nM.

In the case of `Cc1nc2ccccc2c(=O)n1-c1ccc(NC(=O)Cc2c(F)cccc2Cl)cc1` [Compound 27], the EC50 was less than 1000 nM.

Turning to `COc1ccc(CC(=O)Nc2ccc(-n3c(C)nc4ccccc4c3=O)cc2C)cc1Cl` [Compound 33], the half-maximal effective concentration (EC50) was less than 1000 nM.

Take `COc1ccc(CC(=O)Nc2ccc(-n3c(C)nc4ccccc4c3=O)cc2)cc1` [Compound 4]: the EC50 was more than 1000 nM.

For the compound `Cc1ccc(CC(=O)Nc2ccc(-n3c(C)nc4ccccc4c3=O)cc2C)cc1` [Compound 21], the EC50 was more than 1000 nM.

As to `CCC(C(=O)Nc1ccc(-n2c(C)nc3ccccc3c2=O)cc1)c1ccccc1` (stereo not drawn) [Compound 19], the EC50 is less than 1000 nM.

`CCOc1cc(C(=O)Nc2ccc(-n3c(C)nc4ccccc4c3=O)cc2)cc(OCC)c1OCC` [Compound 10]: the EC50 was less than 1000 nM.

`COc1cccc(CC(=O)Nc2ccc(-n3c(C)nc4ccccc4c3=O)cc2C)c1` [Compound 28]: the EC50 was more than 1000 nM.

`COc1ccc(CC(=O)Nc2ccc(-n3c(C)nc4ccccc4c3=O)cc2)cc1Cl` [Compound 7]: the EC50 is less than 1000 nM.

Turning to `COc1cc(CC(=O)Nc2ccc(-n3c(C)nc4ccncc4c3=O)cc2)cc(OC)c1OC` [Compound 50], the EC50 is more than 1000 nM.

Take `COc1ccc(CC(=O)Nc2ccc(-n3c(C)nc4ccccc4c3=O)cc2C)cc1` [Compound 25]: the EC50 is more than 1000 nM.

In the case of `COc1cc(CC(=O)Nc2ccc(-n3c(C(F)(F)F)nc4ccccc4c3=O)cc2)cc(OC)c1OC` [Compound 40], the EC50 is less than 1000 nM.

Regarding `Cc1ccc(CC(=O)Nc2ccc(-n3c(C)nc4ccccc4c3=O)cc2)cc1` [Compound 14], the EC50 is less than 1000 nM.

As to `Cc1cc(-n2c(C)nc3ccccc3c2=O)ccc1NC(=O)Cc1ccc(F)cc1` [Compound 24], the concentration giving a half-maximal response (EC50) was more than 1000 nM.

Take `Cc1cc(-n2c(C)nc3ccccc3c2=O)ccc1NC(=O)Cc1ccccc1Cl` [Compound 30]: the 50% effective concentration (EC50) was more than 1000 nM.

Regarding `Cc1nc2cc(F)c(F)cc2c(=O)n1-c1ccc(NC(=O)Cc2ccc3c(c2)CCC3)cc1` [Compound 77], the EC50 was less than 100 nM.

For the compound `Cc1cc(-n2c(C)nc3ccccc3c2=O)ccc1NC(=O)Cc1ccc(Cl)cc1` [Compound 26], the 50% effective concentration (EC50) is less than 1000 nM.

With `Cc1nc2ccccc2c(=O)n1-c1ccc(NC(=O)Cc2ccccc2Cl)cc1` [Compound 20], the 50% effective concentration (EC50) was more than 1000 nM.

Regarding `Cc1nc2ccccc2c(=O)n1-c1ccc(NC(=O)Cc2ccc(Cl)cc2)cc1` [Compound 18], the EC50 was less than 1000 nM.

As for `COc1cc(CC(=O)Nc2cnc(-n3c(C)nc4ccccc4c3=O)cn2)cc(OC)c1OC` [Compound 63], the EC50 is more than 1000 nM.
